Source: the Kinase Knowledgebase extract (Sharma et al. 2016)

Biological target: ROCK2 (human) (UniProt O75116)
Assay: Inhibition of ROCK2 Kinase Activity

Chain of ROCK2 (human) (O75116 whole entry, looked up): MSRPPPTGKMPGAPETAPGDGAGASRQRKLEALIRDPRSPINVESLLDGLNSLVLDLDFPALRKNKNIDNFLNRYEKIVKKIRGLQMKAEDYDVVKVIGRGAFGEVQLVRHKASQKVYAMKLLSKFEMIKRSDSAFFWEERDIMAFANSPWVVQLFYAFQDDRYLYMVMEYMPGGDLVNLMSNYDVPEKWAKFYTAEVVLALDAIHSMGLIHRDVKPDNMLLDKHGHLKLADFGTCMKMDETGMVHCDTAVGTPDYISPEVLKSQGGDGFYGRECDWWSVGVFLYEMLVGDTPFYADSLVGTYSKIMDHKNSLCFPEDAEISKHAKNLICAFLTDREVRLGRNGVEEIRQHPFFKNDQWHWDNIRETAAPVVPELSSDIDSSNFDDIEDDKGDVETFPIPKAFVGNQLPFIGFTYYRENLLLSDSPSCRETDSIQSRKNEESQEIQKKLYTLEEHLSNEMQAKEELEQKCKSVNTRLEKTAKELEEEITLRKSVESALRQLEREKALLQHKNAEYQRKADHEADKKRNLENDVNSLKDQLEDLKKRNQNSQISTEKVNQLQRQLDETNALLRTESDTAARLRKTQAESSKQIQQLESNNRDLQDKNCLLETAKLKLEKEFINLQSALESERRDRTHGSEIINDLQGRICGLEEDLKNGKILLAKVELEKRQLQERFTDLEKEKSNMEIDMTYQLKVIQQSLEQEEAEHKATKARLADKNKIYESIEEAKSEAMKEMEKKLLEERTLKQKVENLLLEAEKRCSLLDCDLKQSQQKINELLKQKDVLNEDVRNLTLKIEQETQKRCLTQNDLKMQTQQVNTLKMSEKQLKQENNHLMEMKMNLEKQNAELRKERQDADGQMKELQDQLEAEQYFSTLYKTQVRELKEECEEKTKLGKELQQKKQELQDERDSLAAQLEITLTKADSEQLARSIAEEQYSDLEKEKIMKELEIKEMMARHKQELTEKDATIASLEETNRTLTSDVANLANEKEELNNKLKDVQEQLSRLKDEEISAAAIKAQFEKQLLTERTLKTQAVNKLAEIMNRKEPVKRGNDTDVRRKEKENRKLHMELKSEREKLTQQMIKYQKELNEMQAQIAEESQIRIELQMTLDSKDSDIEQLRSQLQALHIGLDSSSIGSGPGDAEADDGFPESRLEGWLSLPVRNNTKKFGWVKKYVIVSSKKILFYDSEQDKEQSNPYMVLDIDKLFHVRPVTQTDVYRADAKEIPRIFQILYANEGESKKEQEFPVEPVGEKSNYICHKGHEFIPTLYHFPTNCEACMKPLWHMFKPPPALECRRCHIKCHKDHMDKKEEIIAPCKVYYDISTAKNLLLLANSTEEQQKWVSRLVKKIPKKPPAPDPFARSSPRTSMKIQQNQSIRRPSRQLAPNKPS

NC(CC(=O)N[C@@H]1CCCc2ccccc21)c1ccc(C(=O)Nc2ccncc2)cc1 (some centres not stated)
IC50: 50 to 500 nM

CN(CC(N)c1ccc(C(=O)Nc2ccncc2)cc1)C(=O)C1(c2ccc(Cl)c(Cl)c2)CCC1 (configuration not stated)
IC50: 500 to 5000 nM

NC(c1ccc(C(=O)Nc2ccncc2)cc1)C1CCCN1C(=O)C1(c2ccc(Cl)cc2)CC1 (configuration not stated)
IC50: 500 to 5000 nM

NC(CNC(=O)CC1CCCCC1)c1ccc(C(=O)Nc2ccncc2)cc1 (configuration not stated)
IC50: 500 to 5000 nM

NC(c1ccc(C(=O)Nc2ccncc2)cc1)C1CCCN1C(=O)C1(c2ccc(F)cc2)CCCC1 (configuration not stated)
IC50: 500 to 5000 nM

NC(CNC(=O)C1(c2ccc(Cl)cc2F)CC1)c1ccc(C(=O)Nc2ccncc2)cc1 (configuration not stated)
IC50: 50 to 500 nM

CCCOc1ccc(C(=O)NCC(N)c2ccc(C(=O)Nc3ccncc3)cc2)cc1 (configuration not stated)
IC50: 500 to 5000 nM

NC(c1ccc(C(=O)Nc2ccncc2)cc1)C1CCCN1C(=O)C1(c2ccc(F)c(F)c2)CCCC1 (configuration not stated)
IC50: 500 to 5000 nM

CC(C)CCC(=O)NCC(N)c1ccc(C(=O)Nc2ccncc2)cc1 (configuration not stated)
IC50: 500 to 5000 nM

CN(CC(N)c1ccc(C(=O)Nc2ccncc2)cc1)C(=O)C1(c2ccc(Cl)cc2)CCCC1 (configuration not stated)
IC50: 500 to 5000 nM

CCN(CC)c1ccc(C(=O)NCC(N)c2ccc(C(=O)Nc3ccncc3)cc2)cc1 (configuration not stated)
IC50: 500 to 5000 nM

CC(C)(C(=O)N1CCCC1C(N)c1ccc(C(=O)Nc2ccncc2)cc1)c1ccc(Cl)cc1 (configuration not stated)
IC50: 500 to 5000 nM

NC(CNC(=O)Cc1ccncc1)c1ccc(C(=O)Nc2ccncc2)cc1 (configuration not stated)
IC50: 500 to 5000 nM

NC(CNC(=O)Cc1c[nH]c2ccccc12)c1ccc(C(=O)Nc2ccncc2)cc1 (configuration not stated)
IC50: 50 to 500 nM

NC(CNC(=O)Nc1ccc(F)cc1)c1ccc(C(=O)Nc2ccncc2)cc1 (configuration not stated)
IC50: 50 to 500 nM

N[C@@H](CC(=O)NC1COc2ccccc21)c1ccc(C(=O)Nc2ccncc2)cc1 (some centres not stated)
IC50: 50 to 500 nM

Cc1ncccc1C(=O)NCC(N)c1ccc(C(=O)Nc2ccncc2)cc1 (configuration not stated)
IC50: 500 to 5000 nM

CC(C)(C)c1ccc(CCNC(=O)CC(N)c2ccc(C(=O)Nc3ccncc3)cc2)cc1 (configuration not stated)
IC50: 50 to 500 nM

Cc1cc(Cl)ccc1OC(C)C(=O)NCC(N)c1ccc(C(=O)Nc2ccncc2)cc1 (configuration not stated)
IC50: 50 to 500 nM

NC(CNC(=O)c1cc2cc(F)ccc2[nH]1)c1ccc(C(=O)Nc2ccncc2)cc1 (configuration not stated)
IC50: 500 to 5000 nM

CC1CCCC(C(=O)NCC(N)c2ccc(C(=O)Nc3ccncc3)cc2)C1 (configuration not stated)
IC50: 500 to 5000 nM

NC(CNC(=O)c1ccccc1-c1ccccc1)c1ccc(C(=O)Nc2ccncc2)cc1 (configuration not stated)
IC50: 500 to 5000 nM

CC(C)(C(=O)NCC(N)c1ccc(C(=O)Nc2ccncc2)cc1)c1ccc(F)cc1Cl (configuration not stated)
IC50: 50 to 500 nM

NC(CC(=O)NCc1ccc2c(c1)OCO2)c1ccc(C(=O)Nc2ccncc2)cc1 (configuration not stated)
IC50: 50 to 500 nM

NC(CNC(=O)[C@@H]1CCC(=O)N1)c1ccc(C(=O)Nc2ccncc2)cc1 (some centres not stated)
IC50: 500 to 5000 nM

NC(CNC(=O)c1cccc(S(=O)(=O)Nc2ccccc2)c1)c1ccc(C(=O)Nc2ccncc2)cc1 (configuration not stated)
IC50: 500 to 5000 nM

COc1cccc(CC(=O)N2CCCC2C(N)c2ccc(C(=O)Nc3ccncc3)cc2)c1 (configuration not stated)
IC50: 500 to 5000 nM

NC(CC(=O)N[C@@H]1CCc2ccccc21)c1ccc(C(=O)Nc2ccncc2)cc1 (some centres not stated)
IC50: 50 to 500 nM

CN(CC(N)c1ccc(C(=O)Nc2ccncc2)cc1)C(=O)Cc1cccc(F)c1F (configuration not stated)
IC50: 500 to 5000 nM

CN(CC(N)c1ccc(C(=O)Nc2ccncc2)cc1)C(=O)Cc1csc2ccccc12 (configuration not stated)
IC50: 500 to 5000 nM

Cc1ccc(CC(=O)NCC(N)c2ccc(C(=O)Nc3ccncc3)cc2)cc1 (configuration not stated)
IC50: 50 to 500 nM

Cc1ccc(C(=O)NCC(N)c2ccc(C(=O)Nc3ccncc3)cc2)cc1 (configuration not stated)
IC50: 500 to 5000 nM

NC(c1ccc(C(=O)Nc2ccncc2)cc1)C1CCCN1C(=O)Cc1ccc(Cl)cc1 (configuration not stated)
IC50: 500 to 5000 nM

NC(c1ccc(C(=O)Nc2ccncc2)cc1)C1CCCN1C(=O)Cc1ccc(Cl)c(Cl)c1 (configuration not stated)
IC50: 500 to 5000 nM

Cn1cccc1C(=O)NCC(N)c1ccc(C(=O)Nc2ccncc2)cc1 (configuration not stated)
IC50: 500 to 5000 nM

CN(CC(N)c1ccc(C(=O)Nc2ccncc2)cc1)C(=O)C1CCSc2ccccc21 (configuration not stated)
IC50: 5000 to 50000 nM

CN(CC(N)c1ccc(C(=O)Nc2ccncc2)cc1)C(=O)C1(c2ccc(Cl)cc2Cl)CC1 (configuration not stated)
IC50: 500 to 5000 nM

CN(CC(N)c1ccc(C(=O)Nc2ccncc2)cc1)C(=O)Cc1ccc(Cl)cc1F (configuration not stated)
IC50: 500 to 5000 nM

CC(CNC(=O)CC(N)c1ccc(C(=O)Nc2ccncc2)cc1)c1ccccc1 (configuration not stated)
IC50: 50 to 500 nM

COc1ccc(NC(=S)NCC(N)c2ccc(C(=O)Nc3ccncc3)cc2)cc1 (configuration not stated)
IC50: 500 to 5000 nM

NC(CC(=O)NCc1ccccc1C(F)(F)F)c1ccc(C(=O)Nc2ccncc2)cc1 (configuration not stated)
IC50: 50 to 500 nM

N[C@@H](CNC(=O)C1(c2ccc(F)cc2)CCCC1)c1ccc(C(=O)Nc2ccncc2)cc1
IC50: 500 to 5000 nM

Cc1cccc(CC(=O)N(C)CC(N)c2ccc(C(=O)Nc3ccncc3)cc2)c1 (configuration not stated)
IC50: 500 to 5000 nM

NC(CC(=O)NCc1ccccc1F)c1ccc(C(=O)Nc2ccncc2)cc1 (configuration not stated)
IC50: 50 to 500 nM

NC(c1ccc(C(=O)Nc2ccncc2)cc1)C1CCCN1C(=O)Cc1ccc(C(F)(F)F)cc1 (configuration not stated)
IC50: 500 to 5000 nM

NC(CC(=O)NCCc1ccc(C(F)(F)F)cc1)c1ccc(C(=O)Nc2ccncc2)cc1 (configuration not stated)
IC50: 50 to 500 nM

NC(CC(=O)NCCc1ccc2c(c1)OCO2)c1ccc(C(=O)Nc2ccncc2)cc1 (configuration not stated)
IC50: 50 to 500 nM

CN(C)CCCC(=O)NCC(N)c1ccc(C(=O)Nc2ccncc2)cc1 (configuration not stated)
IC50: 500 to 5000 nM

Cc1cccc(CN2CCC(NC(=O)CC(N)c3ccc(C(=O)Nc4ccncc4)cc3)CC2)c1 (configuration not stated)
IC50: 50 to 500 nM

CN(CC(N)c1ccc(C(=O)Nc2ccncc2)cc1)C(=O)C1Cc2ccccc21 (configuration not stated)
IC50: 50 to 500 nM

NC(CNC(=O)c1ccc2cc[nH]c2c1)c1ccc(C(=O)Nc2ccncc2)cc1 (configuration not stated)
IC50: 500 to 5000 nM

NC(c1ccc(C(=O)Nc2ccncc2)cc1)C1CCCN1C(=O)Cc1cc(F)cc(F)c1 (configuration not stated)
IC50: 500 to 5000 nM

CN(CC(N)c1ccc(C(=O)Nc2ccncc2)cc1)C(=O)C1CCOc2ccccc21 (configuration not stated)
IC50: 500 to 5000 nM

COc1ccc(C2(C(=O)N(C)CC(N)c3ccc(C(=O)Nc4ccncc4)cc3)CC2)cc1 (configuration not stated)
IC50: 500 to 5000 nM

NC(CNC(=O)Nc1ccc(-c2ccccc2)cc1)c1ccc(C(=O)Nc2ccncc2)cc1 (configuration not stated)
IC50: 500 to 5000 nM

NC(CC(=O)Nc1ccccc1)c1ccc(C(=O)Nc2ccncc2)cc1 (configuration not stated)
IC50: 50 to 500 nM

NC(CNC(=O)c1ccc2ccccc2c1)c1ccc(C(=O)Nc2ccncc2)cc1 (configuration not stated)
IC50: 50 to 500 nM

NC(CC(=O)NCC1CC1)c1ccc(C(=O)Nc2ccncc2)cc1 (configuration not stated)
IC50: 50 to 500 nM

CN(CC(N)c1ccc(C(=O)Nc2ccncc2)cc1)C(=O)C1(c2ccc(Cl)c(Cl)c2)CC1 (configuration not stated)
IC50: 500 to 5000 nM

CCOCC(=O)NCC(N)c1ccc(C(=O)Nc2ccncc2)cc1 (configuration not stated)
IC50: 500 to 5000 nM

NC(CC(=O)NCc1ccccc1Cl)c1ccc(C(=O)Nc2ccncc2)cc1 (configuration not stated)
IC50: 50 to 500 nM

NC(CNC(=O)c1cccc(Br)c1)c1ccc(C(=O)Nc2ccncc2)cc1 (configuration not stated)
IC50: 500 to 5000 nM

CC(C)(NC(=O)CC(N)c1ccc(C(=O)Nc2ccncc2)cc1)c1ccccc1 (configuration not stated)
IC50: 50 to 500 nM

CCCCC(=O)NCC(N)c1ccc(C(=O)Nc2ccncc2)cc1 (configuration not stated)
IC50: 500 to 5000 nM

CC1=C(C(=O)NCC(N)c2ccc(C(=O)Nc3ccncc3)cc2)Cc2ccccc21 (configuration not stated)
IC50: 500 to 5000 nM

CCC(Oc1ccccc1)C(=O)NCC(N)c1ccc(C(=O)Nc2ccncc2)cc1 (configuration not stated)
IC50: 50 to 500 nM

NC(CNC(=O)c1cc2cc(Cl)ccc2o1)c1ccc(C(=O)Nc2ccncc2)cc1 (configuration not stated)
IC50: 500 to 5000 nM

NC(c1ccc(C(=O)Nc2ccncc2)cc1)C1CCCN1C(=O)Cc1cc(F)ccc1F (configuration not stated)
IC50: 500 to 5000 nM

NC(CC(=O)NCc1ccc(C(F)(F)F)cc1)c1ccc(C(=O)Nc2ccncc2)cc1 (configuration not stated)
IC50: 50 to 500 nM

NC(c1ccc(C(=O)Nc2ccncc2)cc1)C1CCCN1C(=O)C1(c2ccc(F)c(F)c2)CCC1 (configuration not stated)
IC50: 500 to 5000 nM

NC(CNC(=S)Nc1ccc(OC(F)(F)F)cc1)c1ccc(C(=O)Nc2ccncc2)cc1 (configuration not stated)
IC50: 500 to 5000 nM

CN(CC(N)c1ccc(C(=O)Nc2ccncc2)cc1)C(=O)Cc1ccc(-c2ccccc2)cc1 (configuration not stated)
IC50: 500 to 5000 nM
